Assay [1] deals with T1, human sphingosine-1-phosphate receptor 1 (S1P1) (Homo sapiens (Human), UniProt P21453). Nature of the assay: Inhibition of cAMP production (HTRF cAMP HiRange), S1P1 CHO-K1 cells. The format is cell-based. The settings on record: for hS1P1 cAMP pEC50 / EC50: inhibition of cAMP production, S1P1 CHO-K1 cells; for Emax: CHO-K1, efficacy (SPAN) normalized to fingolimod, read-out: hS1P1 cAMP SPAN; for EC50: read-out: hS1P1 cAMP pEC50 (converted). In short, it runs like this: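 CHO-K1 cells stably co-expressing human S1P1 (C-terminal Prolink tag) and EA-β-arrestin2 were grown in AssayComplete Media 6 at 37° C. and 5% CO2, plated, and incubated overnight. Agonist-driven inhibition of intracellular cAMP was read by TR-FRET with the HTRF cAMP HiRange kit on a PheraStar reader. Potency is pEC50, and efficacy (SPAN) is normalized to fingolimod.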
A general note: cAMP levels reflect the balance of adenylyl cyclase and phosphodiesterase activity.
Target sequence in this assay (P21453 whole entry, looked up): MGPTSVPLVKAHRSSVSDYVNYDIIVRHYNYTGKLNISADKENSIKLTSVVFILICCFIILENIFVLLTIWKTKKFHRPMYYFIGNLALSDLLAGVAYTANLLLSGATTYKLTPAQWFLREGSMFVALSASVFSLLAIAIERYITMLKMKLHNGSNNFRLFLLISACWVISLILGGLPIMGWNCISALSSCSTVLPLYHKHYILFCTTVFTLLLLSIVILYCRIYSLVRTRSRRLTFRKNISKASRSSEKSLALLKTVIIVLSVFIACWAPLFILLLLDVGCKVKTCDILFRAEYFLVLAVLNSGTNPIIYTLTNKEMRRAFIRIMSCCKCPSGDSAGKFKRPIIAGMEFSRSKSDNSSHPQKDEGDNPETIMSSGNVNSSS

Assay [2] addresses T1, human sphingosine-1-phosphate receptor 1 (S1P1). Nature of the assay: β-Arrestin2 recruitment assay (PathHunter), S1P1 CHO-K1 cells. The format is cell-based. The settings on record: for hS1P1 B-arrestin2 pEC50 / EC50: β-arrestin2 recruitment, S1P1 CHO-K1 cells; for Emax: CHO-K1, efficacy (SPAN) normalized to fingolimod, read-out: hS1P1 B-arrestin2 SPAN; for EC50: read-out: hS1P1 B-arrestin2 pEC50 (converted). In short, it runs like this:
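Enzyme-fragment complementation read-out: agonist-driven β-arrestin2 binding to ProLink-tagged human S1P1 in stable CHO-K1 cells restores β-galactosidase, measured 1 h at room temperature after a 60 min 37° C. compound incubation. Potency as pEC50, efficacy relative to fingolimod (SPAN).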
Target sequence in this assay (P21453 whole entry, looked up): as above
Target sequence in this assay (P32121 whole entry partner, looked up): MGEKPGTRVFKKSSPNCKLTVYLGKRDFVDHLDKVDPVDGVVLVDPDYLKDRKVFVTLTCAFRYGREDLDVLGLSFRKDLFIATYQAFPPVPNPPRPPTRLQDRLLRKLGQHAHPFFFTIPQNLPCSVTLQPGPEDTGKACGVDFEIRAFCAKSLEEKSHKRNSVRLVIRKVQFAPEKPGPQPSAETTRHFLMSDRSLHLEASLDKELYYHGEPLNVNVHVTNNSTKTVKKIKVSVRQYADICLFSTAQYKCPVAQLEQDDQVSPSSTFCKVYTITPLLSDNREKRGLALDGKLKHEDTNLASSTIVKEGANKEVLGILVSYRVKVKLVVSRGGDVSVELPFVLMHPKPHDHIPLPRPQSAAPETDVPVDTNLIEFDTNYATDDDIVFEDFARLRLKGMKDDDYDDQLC

Structures are written as SMILES.

On to `CCC1(CC)CC(=O)c2cc(-c3nc(-c4cccs4)no3)ccc2O1` [Compound 467, 2,2-diethyl-6-(3-(thiophen-2-yl)-1,2,4-oxadiazol-5-yl)chroman-4-one], for which the “hS1P1 cAMP pEC50” value in assay [1] is >6.5. Also, the “hS1P1 B-arrestin2 pEC50” value in assay [2] was >5.
As for `CCC1(CC)CC(=O)c2cc(-c3nc(-c4ccsc4)no3)ccc2O1` [Compound 468, 2,2-diethyl-6-(3-(thiophen-3-yl)-1,2,4-oxadiazol-5-yl)chroman-4-one], the “hS1P1 cAMP pEC50” value in assay [1] is >6.5. Besides, in assay [2], the “hS1P1 B-arrestin2 pEC50” value is >5.
As to `CCC1(CC)CC(=O)c2cc(-c3nc(-c4ccn[nH]4)no3)ccc2O1` [Compound 470, 6-(3-(1H-pyrazol-5-yl)-1,2,4-oxadiazol-5-yl)-2,2-diethylchroman-4-one], the “hS1P1 cAMP pEC50” value in assay [1] is on record as <6.5. Also, the “hS1P1 B-arrestin2 pEC50” value in assay [2] is listed as <5.
Turning to `CC(C)Nc1ccc(-c2nnc(-c3ccc4c(c3)CCC(=O)N4)o2)cc1C#N` [Compound 473, 5-[5-(2-oxo-1,2,3,4-tetrahydroquinolin-6-yl)-1,3,4-oxadiazol-2-yl]-2-[(propan-2-yl)amino]benzonitrile], the “hS1P1 cAMP pEC50” value in assay [1] was >6.5. In addition, in assay [2], the “hS1P1 B-arrestin2 pEC50” value was >5.
Regarding `CC(C)n1nnc2cc(-c3nc(-c4ccccn4)co3)ccc21` [Compound 474, 1-(propan-2-yl)-5-[4-(pyridin-2-yl)-1,3-oxazol-2-yl]-1H-1,2,3-benzotriazole], in assay [1], the Emax was > 75% and the “hS1P1 cAMP pEC50” value is <6.5. Besides, in assay [2], the Emax was > 75% and the “hS1P1 B-arrestin2 pEC50” value was <5.
For `N#Cc1cc(-c2nnc(-c3ccc4c(c3)CCC(=O)N4)o2)ccc1NCC1CC1` [Compound 475, 2-[(cyclopropylmethyl)amino]-5-[5-(2-oxo-1,2,3,4-tetrahydroquinolin-6-yl)-1,3,4-oxadiazol-2-yl]benzonitrile], the “hS1P1 cAMP pEC50” value in assay [1] is on record as >6.5. Further, the “hS1P1 B-arrestin2 pEC50” value in assay [2] was >5.
For `N#Cc1cc(-c2nnc(-c3ccc4c(c3)CCC(=O)N4)o2)ccc1NCCF` [Compound 476, 2-[(2-fluoroethyl)amino]-5-[5-(2-oxo-1,2,3,4-tetrahydroquinolin-6-yl)-1,3,4-oxadiazol-2-yl]benzonitrile], in assay [1], the “hS1P1 cAMP pEC50” value is recorded as >6.5. The “hS1P1 B-arrestin2 pEC50” value in assay [2] is reported as >5.
As to `N#Cc1cc(-c2nnc(-c3ccc4c(c3)CCC(=O)N4)o2)ccc1NCC(F)F` [Compound 477, 2-[(2,2-difluoroethyl)amino]-5-[5-(2-oxo-1,2,3,4-tetrahydroquinolin-6-yl)-1,3,4-oxadiazol-2-yl]benzonitrile], the “hS1P1 cAMP pEC50” value in assay [1] is >6.5. Besides, the “hS1P1 B-arrestin2 pEC50” value in assay [2] is recorded as >5.
Regarding `O=C1CC(CO)(CO)Oc2ccc(-c3nc(-c4cccnc4)no3)cc21` [Compound 478, 2,2-bis(hydroxymethyl)-6-[3-(pyridin-3-yl)-1,2,4-oxadiazol-5-yl]-3,4-dihydro-2H-1-benzopyran-4-one], in assay [1], the “hS1P1 cAMP pEC50” value was <6.5. The “hS1P1 B-arrestin2 pEC50” value in assay [2] is <5.
As for `O=C1c2cc(-c3nc(-c4cccnc4)no3)ccc2OC(CO)(CO)C1Br` (stereo not drawn) [Compound 479, 3-bromo-2,2-bis(hydroxymethyl)-6-[3-(pyridin-3-yl)-1,2,4-oxadiazol-5-yl]-3,4-dihydro-2H-1-benzopyran-4-one], the “hS1P1 cAMP pEC50” value in assay [1] was <6.5. In addition, the “hS1P1 B-arrestin2 pEC50” value in assay [2] is <5.
With `CC1(C)Oc2ccc(-c3nc(-c4ccncc4)no3)cc2C1=O` [Compound 480, 2,2-dimethyl-5-[3-(pyridin-4-yl)-1,2,4-oxadiazol-5-yl]-2,3-dihydro-1-benzofuran-3-one], the “hS1P1 cAMP pEC50” value in assay [1] is given as <6.5. Moreover, the “hS1P1 B-arrestin2 pEC50” value in assay [2] is <5.
As to `CC1(C)Oc2ccc(-c3nc(-c4cccnc4)no3)cc2C1=O` [Compound 481, 2,2-dimethyl-5-[3-(pyridin-3-yl)-1,2,4-oxadiazol-5-yl]-2,3-dihydro-1-benzofuran-3-one], the “hS1P1 cAMP pEC50” value in assay [1] was <6.5. Also, the “hS1P1 B-arrestin2 pEC50” value in assay [2] is recorded as >5.
Regarding `O=C1CC(CO)(CO)Oc2ccc(-c3nc(-c4ccncc4)no3)cc21` [Compound 482, 2,2-bis(hydroxymethyl)-6-[3-(pyridin-4-yl)-1,2,4-oxadiazol-5-yl]-3,4-dihydro-2H-1-benzopyran-4-one], in assay [1], the “hS1P1 cAMP pEC50” value is reported as <6.5. The “hS1P1 B-arrestin2 pEC50” value in assay [2] is <5.
Turning to `O=C1c2cc(-c3nc(-c4ccncc4)no3)ccc2OC(CO)(CO)C1Br` (stereo not drawn) [Compound 483, 3-bromo-2,2-bis(hydroxymethyl)-6-[3-(pyridin-4-yl)-1,2,4-oxadiazol-5-yl]-3,4-dihydro-2H-1-benzopyran-4-one], in assay [1], the “hS1P1 cAMP pEC50” value was <6.5. Besides, the “hS1P1 B-arrestin2 pEC50” value in assay [2] is recorded as <5.
As to `CC(C)Nc1ccc(-c2nnc(-c3ccc4[nH]c(=O)oc4c3)o2)cc1C#N` [Compound 484, 5-[5-(2-oxo-2,3-dihydro-1,3-benzoxazol-6-yl)-1,3,4-oxadiazol-2-yl]-2-[(propan-2-yl)amino]benzonitrile], the “hS1P1 cAMP pEC50” value in assay [1] is >6.5. The “hS1P1 B-arrestin2 pEC50” value in assay [2] is recorded as >5.
For `CCC1(CC)CC(=O)c2cc(-c3nc(-c4cc[nH]c4)no3)ccc2O1` [Compound 485, 6-(3-(1H-pyrrol-3-yl)-1,2,4-oxadiazol-5-yl)-2,2-diethylchroman-4-one], the “hS1P1 cAMP pEC50” value in assay [1] is recorded as >6.5. Further, the “hS1P1 B-arrestin2 pEC50” value in assay [2] is listed as <5.
The like results for `N#Cc1cc(-c2nnc(-c3ccc4[nH]c(=O)oc4c3)o2)ccc1NCC1CC1` [Compound 486, 2-[(cyclopropylmethyl)amino]-5-[5-(2-oxo-2,3-dihydro-1,3-benzoxazol-6-yl)-1,3,4-oxadiazol-2-yl]benzonitrile] were, in that order, >6.5 and <5.
In the case of `N#Cc1cc(-c2nnc(-c3ccc4[nH]c(=O)oc4c3)o2)ccc1NCCF` [Compound 487, 2-[(2-fluoroethyl)amino]-5-[5-(2-oxo-2,3-dihydro-1,3-benzoxazol-6-yl)-1,3,4-oxadiazol-2-yl]benzonitrile], in assay [1], the “hS1P1 cAMP pEC50” value is reported as <6.5. The “hS1P1 B-arrestin2 pEC50” value in assay [2] is reported as >5.
Consider `N#Cc1cc(-c2nnc(-c3ccc4[nH]c(=O)oc4c3)o2)ccc1NCC(F)F` [Compound 488, 2-[(2,2-difluoroethyl)amino]-5-[5-(2-oxo-2,3-dihydro-1,3-benzoxazol-6-yl)-1,3,4-oxadiazol-2-yl]benzonitrile], for which, in assay [1], the “hS1P1 cAMP pEC50” value is recorded as >6.5. The “hS1P1 B-arrestin2 pEC50” value in assay [2] is recorded as >5.
Turning to `Cc1cc(-c2noc(-c3ccc4c(c3)nnn4C(C)C)n2)c(C)o1` [Compound 490, 5-[3-(2,5-dimethylfuran-3-yl)-1,2,4-oxadiazol-5-yl]-1-(propan-2-yl)-1H-1,2,3-benzotriazole], in assay [1], the Emax was > 75% and the EC50 is < 0.316 µM. Besides, in assay [2], the Emax was > 75% and the EC50 was < 10 µM.
Regarding `Cc1occc1-c1noc(-c2ccc3c(c2)nnn3CC(C)(C)O)n1` [Compound 492, 2-methyl-1-{5-[3-(2-methylfuran-3-yl)-1,2,4-oxadiazol-5-yl]-1H-1,2,3-benzotriazol-1-yl}propan-2-ol], in assay [1], the Emax was > 75% and the “hS1P1 cAMP pEC50” value was <6.5. Further, in assay [2], the Emax was > 75% and the “hS1P1 B-arrestin2 pEC50” value was <5.
On to `Cc1cc(-c2noc(-c3ccc4c(c3)nnn4CC(C)(C)O)n2)c(C)o1` [Compound 493, 1-{5-[3-(2,5-dimethylfuran-3-yl)-1,2,4-oxadiazol-5-yl]-1H-1,2,3-benzotriazol-1-yl}-2-methylpropan-2-ol], for which, in assay [1], the Emax is > 75% and the EC50 is > 0.316 µM. For the same compound, in assay [2], the Emax is > 75% and the EC50 is > 10 µM.
As to `COCC1(COC)CC(=O)c2cc(-c3nc(-c4ccncc4)no3)ccc2O1` [Compound 494, 2,2-bis(methoxymethyl)-6-[3-(pyridin-4-yl)-1,2,4-oxadiazol-5-yl]-3,4-dihydro-2H-1-benzopyran-4-one], the “hS1P1 cAMP pEC50” value in assay [1] is reported as <6.5. Also, the “hS1P1 B-arrestin2 pEC50” value in assay [2] is >5.
For `CCC1(CC)CC(=O)c2cc(-c3nc(-c4ccoc4)no3)ccc2O1` [Compound 495, 2,2-diethyl-6-(3-(furan-3-yl)-1,2,4-oxadiazol-5-yl)chroman-4-one], the “hS1P1 cAMP pEC50” value in assay [1] was >6.5. Moreover, the “hS1P1 B-arrestin2 pEC50” value in assay [2] was >5.
For `CC(C)n1nnc2cc(-c3nc(-c4cccnc4Cl)no3)ccc21` [Compound 499, 5-[3-(2-chloropyridin-3-yl)-1,2,4-oxadiazol-5-yl]-1-(propan-2-yl)-1H-1,2,3-benzotriazole], in assay [1], the Emax is > 75% and the EC50 was < 0.316 µM. Also, in assay [2], the Emax was > 75% and the EC50 was < 10 µM.
On to `CCC1(CC)CC(=O)c2cc(-c3nc(-c4ccc5nonc5c4)no3)ccc2O1` [Compound 500, 6-[3-(2,1,3-benzoxadiazol-5-yl)-1,2,4-oxadiazol-5-yl]-2,2-diethyl-3,4-dihydro-2H-1-benzopyran-4-one], for which the “hS1P1 cAMP pEC50” value in assay [1] is <6.5. Moreover, the “hS1P1 B-arrestin2 pEC50” value in assay [2] is listed as <5.
Consider `CC(C)(O)Cn1nnc2cc(-c3nc(-c4ccc5nc[nH]c5c4)no3)ccc21` [Compound 501, 1-{5-[3-(1H-1,3-benzodiazol-6-yl)-1,2,4-oxadiazol-5-yl]-1H-1,2,3-benzotriazol-1-yl}-2-methylpropan-2-ol], for which, in assay [1], the Emax is < 75% and the “hS1P1 cAMP pEC50” value was <6.5. Also, in assay [2], the Emax is > 75% and the “hS1P1 B-arrestin2 pEC50” value is listed as <5.

These data come from patent US11912693B2, “Compounds for modulating S1P1 activity and methods of using the same” (TREVENA, INC., priority 2017, dated 2024).
